Laboratory results as given in article PMC12144414 (iScience, 2025).
Peptide text beside a SMILES is read from it.

What was measured:
[1] = test system: mouse model of AIS induced by transient MCAO; details: in vivo
mouse GAPDH = mouse GAPDH (Mus musculus, UniProt P16858); assay: In vitro GAPDH aggregation assay with C152A-GAPDH; type: biochemical; details: mouse GAPDH 0.3 mg/ml + C152A-GAPDH 0-0.75 mg/ml, 37°C 24 h, A405; n = 3
Human recombinant GAPDH = Human recombinant GAPDH (Homo sapiens, UniProt P04406); assay: GAI peptide inhibition of GAPDH aggregation; type: biochemical; details: read-out: Potency: Aggregation inhibitory activity (%); SD
Chain of Human recombinant GAPDH (P04406 whole entry): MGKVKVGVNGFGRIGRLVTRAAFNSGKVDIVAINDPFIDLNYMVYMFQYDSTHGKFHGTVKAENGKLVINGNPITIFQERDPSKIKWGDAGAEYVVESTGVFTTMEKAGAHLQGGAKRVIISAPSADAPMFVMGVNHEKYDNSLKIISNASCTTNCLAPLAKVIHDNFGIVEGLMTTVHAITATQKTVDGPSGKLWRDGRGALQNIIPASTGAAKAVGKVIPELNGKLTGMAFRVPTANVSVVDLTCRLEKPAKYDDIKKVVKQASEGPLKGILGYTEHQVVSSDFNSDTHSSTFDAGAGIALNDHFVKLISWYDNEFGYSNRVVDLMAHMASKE

[2] = Levels of pyruvate in the brain; type: in vivo, mouse; details: GAI-17 treatment; data not shown
[3] = Physiological parameters during ischemia/reperfusion; type: in vivo, mouse; details: 60 nmol GAI-17, during ischemia-reperfusion
[4] = Stability in mouse blood serum; type: in vitro ADME; details: prediction: endopeptidase cleavage upon peripheral injection; not tested
[5] = Regional cerebral blood flow; type: in vivo, mouse; details: 60 nmol GAI-17, during ischemia-reperfusion; n = 4

Chain of mouse GAPDH (P16858 whole entry): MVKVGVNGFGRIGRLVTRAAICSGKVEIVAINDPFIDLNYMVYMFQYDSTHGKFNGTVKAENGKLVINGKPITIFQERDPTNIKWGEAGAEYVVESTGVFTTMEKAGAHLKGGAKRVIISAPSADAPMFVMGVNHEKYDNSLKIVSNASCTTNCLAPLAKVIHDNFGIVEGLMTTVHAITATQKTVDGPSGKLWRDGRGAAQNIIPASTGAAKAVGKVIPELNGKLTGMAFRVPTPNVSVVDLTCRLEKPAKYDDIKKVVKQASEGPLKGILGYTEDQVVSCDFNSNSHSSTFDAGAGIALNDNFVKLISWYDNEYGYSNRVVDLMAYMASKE

C#CCN(C)[C@H](C)Cc1ccccc1 [deprenyl]
Development of brain infarction caused by MCAO (infarct volume in whole brain) [1]: no significant effect

human GAPDH-C152A: His-tagged recombinant human GAPDH mutant with Cys-152 substituted to alanine, dominant-negative for aggregation
Inhibitory effect on mouse GAPDH aggregation in vitro (mouse GAPDH): confirmed in vitro

C[C@@H](O)[C@H](NC(=O)[C@H](CS)NC(=O)[C@@H](N)CO)C(=O)O [GAI-17] (H-Ser-Cys-Thr-OH)
inhibition (Human recombinant GAPDH): 97.2 ± 1.88% | Levels of pyruvate in the brain [2]: did not affect | Physiological parameters (MBP, HR, blood PaO2, PaCO2, pH, RT) [3]: no changes | Stability in mouse blood serum [4]: predicted to be unstable | Cerebral blood flow [5]: no changes
